Experimental data taken from patent publication US10072304B2, “Nuclear localization of Src-family tyrosine kinases is required for growth factor-induced euchromatinization” (National University Corporation Chiba University, priority 2009, dated 2018).

System: SYF cells
Assay: Anti-pTyr immunofluorescent staining of tyrosine phosphorylation in SYF cells
Assay type: cell-based, mouse
Details: 3 mM Na3VO4 for 3 h, FIG. 46
Experimental: COS-1, HeLa cells (Japanese Collection of Research Bioresources, Osaka), MCF-7 (provided by H. Saya), A431 (provided by M. N. Fukuda), HEK293 (provided by M. Tagawa), HCT116 (provided by T. Tomonaga), and SYF ([37]; provided by M. Okada and S. Nada) cells were cultured in Iscove's modified DME containing 5% fetal bovine serum (FBS). Cells were transiently transfected with 0.5 μg of plasmid vector using Trans IT Transfection reagent (Mirus) or with 1 μg of plasmid vector using linear polyethylenimine (25 kDa) (Polyscience, Inc.). For growth factor stimulation, COS-1 cells were starved under low serum conditions (0.05% FBS) for 24 h and restimulated with serum (5% FBS). […]
Confocal and Nomarski differential-interference-contrast images were obtained using a Fluoview FV500 confocal laser scanning microscope with a 40×1.00 NA oil and a 100×1.35 NA oil immersion objective (Olympus, Tokyo) and an LSM 510 confocal laser scanning microscope with a 63×1.40 NA oil immersion objective (Zeiss), as described. […] Emission signals were detected between 505 and 525 nm for fluorescein, at more than 560 nm for rhodamine and more than 610 nm for PI [44]. […] Fluorescence intensity plots of anti-histone H3K4me3, anti-ATF-2 pT69/71 and anti-HP1α antibody and PI staining (see FIGS. 18B, 19B, and 20B, respectively) were generated using Fluoview version 4.3 software (Olympus, Tokyo). […]

[Na+].[Na+].[Na+].[O]=[V]([O-])([O-])[O-] [Na3VO4, sodium orthovanadate]
tyrosine phosphorylation: increased tyrosine phosphorylation at levels comparable to those in COS-1 cells
